pKi: −log10 of the molar value.
Columns and labels:
[1] = molecular target: T1, human dopamine D2L receptors (long isoform) (Homo sapiens, UniProt P14416); assay: Dopamine D2L receptor binding, [125I] iodospiperone displacement; conditions: membranes of HEK-293 cells stably expressing human D2L receptor; 0.01 nM [125I] iodospiperone; 25° C., 60 minutes; read-out: Ki(D2)*
T1 construct: expressed in transfected cells; membranes
Experimental: (§1) The substance to be tested was either dissolved in methanol/Chremophor® (BASF-AG) or in dimethyl sulfoxide and then diluted with water to the desired concentration.
(§2) Each assay mixture was run in triplicate.
The incubation buffer contained 50 mM tris, 120 mM NaCl, 5 mM KCl, 2 mM CaCl2, 2 mM MgCl2 and 0.1% bovine serum albumin. The buffer was adjusted to pH 7.4 with HCl.
(§3) Measurement and Analysis:
(§4) After having been incubated at 25° C. for 60 minutes, the assay mixtures were filtered through a Whatman GF/B glass fiber filter under vacuum using a cell collecting device. The filters were transferred to scintillation viols using a filter transfer system. After 4 ml of Ultima Gold® (Packard) have been added, the samples were shaken for one hour and the radioactivity was then counted in a Beta-Counter (Packard, Tricarb 2000 or 2200CA). The cpm values were converted into dpm using a standard quench series and the program belonging to the instrument.
(§5) The inhibition curves were analyzed by means of iterative nonlinear regression analysis using the Statistical Analysis System (SAS) which is similar to the “LIGAND” program described by Munson and Rodbard.
(§6) The results of the receptro binding studies are expressed as receptor binding constants Ki(D2) and Ki(D3), respectively, as herein before described, and given in table 2.

[2] = molecular target: T2, human dopamine D3 receptors (Homo sapiens, UniProt P35462); assay: Dopamine D3 receptor binding, [125I]-iodosulpride displacement; conditions: for pKi: membranes of HEK-293 cells stably expressing human D3 receptor, 0.1 nM [125I]-iodosulpride, 25° C., 60 minutes; for Ki(D2)*/Ki(D3)*: selectivity ratio of receptor binding constants D2 versus D3
T2 construct: expressed in transfected cells; membranes
T2 sequence (P35462 whole entry): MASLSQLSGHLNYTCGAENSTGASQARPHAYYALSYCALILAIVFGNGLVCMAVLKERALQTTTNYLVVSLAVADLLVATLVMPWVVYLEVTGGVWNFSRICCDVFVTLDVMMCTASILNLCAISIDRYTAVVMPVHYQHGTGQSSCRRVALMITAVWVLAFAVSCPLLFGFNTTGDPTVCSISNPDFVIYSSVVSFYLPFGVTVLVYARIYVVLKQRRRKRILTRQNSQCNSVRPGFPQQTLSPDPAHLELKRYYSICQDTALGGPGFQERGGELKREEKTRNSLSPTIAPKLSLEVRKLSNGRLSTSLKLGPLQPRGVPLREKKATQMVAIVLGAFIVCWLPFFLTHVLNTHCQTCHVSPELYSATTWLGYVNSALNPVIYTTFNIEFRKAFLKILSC
Experimental: as §1, §2
The incubation buffer contained 50 mM tris, 120 mM NaCl, 5 mM KCl, 2 mM CaCl2, 2 mM MgCl2 and 0.1% bovine serum albumin, 10 μM quinolone and 0.1% ascorbic acid (prepared fresh daily). The buffer was adjusted to pH 7.4 with HCl.
as §3, §4, §5, §6

T1 sequence (P14416 whole entry, canonical isoform): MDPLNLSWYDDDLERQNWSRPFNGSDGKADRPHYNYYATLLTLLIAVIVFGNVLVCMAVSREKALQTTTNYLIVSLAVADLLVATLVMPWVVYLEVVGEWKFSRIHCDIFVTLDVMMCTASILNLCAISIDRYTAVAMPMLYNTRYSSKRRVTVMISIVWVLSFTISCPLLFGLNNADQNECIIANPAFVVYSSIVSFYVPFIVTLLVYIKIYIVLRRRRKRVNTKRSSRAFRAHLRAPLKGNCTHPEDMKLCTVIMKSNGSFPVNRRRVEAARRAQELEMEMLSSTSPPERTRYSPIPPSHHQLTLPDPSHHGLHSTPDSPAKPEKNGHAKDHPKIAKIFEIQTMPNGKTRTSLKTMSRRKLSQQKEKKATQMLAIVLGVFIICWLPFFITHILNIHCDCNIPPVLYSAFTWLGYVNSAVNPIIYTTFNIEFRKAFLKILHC

| SMILES | pKi [1] | pKi [2] | Ki(D2)*/Ki(D3)* [2] |
| --- | --- | --- | --- |
| CCCNC1COc2cc(NS(=O)(=O)c3ccc(C(C)C)cc3)cnc2C1 (stereo not drawn) [Example 35, 4-Isopropyl-N-(3-propylamino-3,4-dihydro-2H-pyrano[3,2-b]pyridin-7-yl)benzenesulfonamide] | 4.91 | 7.52 | 406 |
| CCCN[C@H]1CCc2cc(NS(=O)(=O)c3ccc(-c4cnco4)s3)ccc2C1 [Example 38, 5-Oxazol-5-yl-thiophene-2-sulfonic acid ((S)-6-propylamino-5,6,7,8-tetrahydro-naphthalen-2-yl)-amide] | 6.14 | 8.32 | 151 |
| CCCN[C@H]1CCc2cc(NS(=O)(=O)c3ccc([C@@H](C)C(F)(F)F)cc3)ccc2C1 [Example 41, N—((S)-6-Propylamino-5,6,7,8-tetrahydro-naphthalen-2-yl)-4-((R)-2,2,2-trifluoro-1-methylethyl)-benzenesulfonamide] | 5.91 | 7.91 | 101 |
| CCCN[C@H]1CCc2cc(NS(=O)(=O)c3ccc([C@H](C)C(F)(F)F)cc3)ccc2C1 [Example 42, N—((S)-6-Propylamino-5,6,7,8-tetrahydro-naphthalen-2-yl)-4-((S)-2,2,2-trifluoro-1-methylethyl)-benzenesulfonamide] | 6.29 | 8.71 | 263 |
| CCCN[C@H]1CCc2cc(NS(=O)(=O)c3ccc(-c4ccon4)s3)ccc2C1 [Example 43, 5-Isoxazol-3-yl-thiophene-2-sulfonic acid ((S)-6-propylamino-5,6,7,8-tetrahydro-naphthalen-2-yl)-amide] | 5.46 | 7.51 | 113 |
| CCCN[C@H]1CCc2cc(NS(=O)(=O)c3ccc(N4CCOCC4)cc3)ccc2C1 [Example 45, 4-Morpholin-4-yl-N—((S)-6-propylamino-5,6,7,8-tetrahydro-naphthalen-2-yl)benzenesulfonamide] | 5.88 | 7.86 | 94 |
| CCCN[C@H]1CCc2cc(NS(=O)(=O)c3ccc(-n4cccn4)cc3)ccc2C1.Cl [Example 76, N—((S)-6-Propylamino-5,6,7,8-tetrahydro-naphthalen-2-yl)-4-pyrazol-1-ylbenzenesulfonamide, hydrochloride] | 6.14 | 8.06 | 84 |
| CCCN[C@H]1CCc2cc(NS(=O)(=O)c3ccc(C(C)C(F)F)cc3)ccc2C1.Cl (stereo partly drawn) [Example 77, 4-(2,2-Difluoro-1-methyl-ethyl)-N—((S)-6-propylamino-5,6,7,8-tetrahydro-naphthalen-2-yl)benzenesulfonamide, hydrochloride] | 6.30 | 8.78 | 304 |

Compounds with a higher pKi [1], results first:

| pKi [1] | pKi [2] | Ki(D2)*/Ki(D3)* [2] | SMILES |
| --- | --- | --- | --- |
| 6.32 | 7.95 | 42 | CCCNC1CCc2cc(NS(=O)(=O)c3ccc(C(C)C)cc3)cnc2C1 (stereo not drawn) [Example 15, 4-Isopropyl-N-(7-propylamino-5,6,7,8-tetrahydro-quinolin-3-yl)-benzenesulfonamide] |
| 6.38 | 7.82 | 27 | C=CCN[C@H]1CCc2cc(N(C)S(=O)(=O)c3ccc(C(C)C)cc3)ccc2C1 [Example 9, N—((S)-6-Allylamino-5,6,7,8-tetrahydro-naphthalen-2-yl)-4-isopropyl-N-methylbenzenesulfonamide] |
| 6.47 | 8.12 | 45 | C=CCN1CCC[C@H]2c3cc(NS(=O)(=O)c4ccc(C(C)C)cc4)ccc3CC[C@@H]21 [Example 20, N-((4aS,10bS)-4-Allyl-1,2,3,4,4a,5,6,10b-octahydro-benzo[f]quinolin-9-yl)-4-isopropylbenzenesulfonamide] |
| 6.59 | 9.21 | 416 | CCCN[C@H]1CCc2cc(NS(=O)(=O)c3ccc(N4CC[C@@H](F)C4)cc3)ccc2C1 [Example 44, 4-((R)-3-Fluoro-pyrrolidin-1-yl)-N—((S)-6-propylamino-5,6,7,8-tetrahydro-naphthalen-2-yl)benzenesulfonamide] |
| 6.62 | 8.09 | 29 | CCCN[C@H]1CCc2cc(N(C)S(=O)(=O)c3ccc(C(C)C)cc3)ccc2C1 [Example 10, 4-Isopropyl-N-methyl-N—((S)-6-propylamino-5,6,7,8-tetrahydro-naphthalen-2-yl)benzenesulfonamide] |
| 6.82 | 8.71 | 77 | C=CCN[C@H]1CCc2cc(NS(=O)(=O)c3ccc(C(C)C)cc3)ccc2C1.Cl [Example 7, N—((S)-6-Allylamino-5,6,7,8-tetrahydro-naphthalen-2-yl)-4-isopropyl-benzenesulfonamide, hydrochloride] |
| 7.29 | 8.60 | 21 | C=CCN1CCC[C@H]2c3ccc(NS(=O)(=O)c4ccc(C(C)C)cc4)cc3CC[C@@H]21 [Example 19, N-((4aS,10bS)-4-Allyl-1,2,3,4,4a,5,6,10b-octahydro-benzo[f]quinolin-8-yl)-4-isopropylbenzenesulfonamide] |
| 7.30 | 9.30 | 102 | CCCN[C@H]1CCc2cc(NS(=O)(=O)c3ccc(C(C)C)cc3)ccc2C1.Cl [Example 8, 4-Isopropyl-N—((S)-6-propylamino-5,6,7,8-tetrahydro-naphthalen-2-yl)-benzenesulfonamide, hydrochloride] |
| 7.84 | 9.55 | 52 | C=CCN[C@@H]1CCc2cc(NS(=O)(=O)c3ccc(C(C)C)cc3)ccc2C1.Cl [Example 6, N—((R)-6-Allylamino-5,6,7,8-tetrahydro-naphthalen-2-yl)-4-isopropyl-benzenesulfonamide, hydrochloride] |
| 7.95 | 9.41 | 29 | CCCN(CCC)[C@H]1CCc2cc(NS(=O)(=O)c3ccc(C(C)C)cc3)ccc2C1.Cl [Example 30, N—((S)-6-Dipropylamino-5,6,7,8-tetrahydro-naphthalen-2-yl)-4-isopropylbenzenesulfonamide, hydrochloride] |
| 8.86 | 9.43 | 4 | CCCN(CCC)[C@@H]1CCc2cc(NS(=O)(=O)c3ccc(C(C)C)cc3)ccc2C1.Cl [Example 29, N—((R)-6-Dipropylamino-5,6,7,8-tetrahydro-naphthalen-2-yl)-4-isopropyl-benzenesulfonamide, hydrochloride] |

— patent US8969552B2, “Arylsulfonylmethyl or arylsulfonamide substituted aromatic compounds suitable for treating disorders that respond to modulation of the dopamine D3 receptor” (AbbVie Deutschland GmbH & Co. KG, priority 2004, dated 2015)
